Like-named read-outs stand apart in the source and are kept apart here. Marks after values point to notes of the source that are not given here. Each block holds one compound with its values, some of them ahead of it.
What was measured:
[1] = IIIATO group: single oral ATO 20 mg/kg b.w. alone, rat plasma, n = 8; median (quartiles) or mean ± SD (CV %); adopted from previous study ref 12; cited from earlier work
[2] = parameters: method as in earlier work; details: mice, repeated oral 10 mg/kg of REG for 5 consecutive days; ref 27 (Zopf et al.); cited from earlier work
[3] = Plasma pharmacokinetics of REG, M-2 and M-5 in rats after single oral REG with or without ATO (UPLC-MS/MS, non-compartmental analysis); assay type: in vivo, male Wistar rats; details: for increase of AUC0–t / increase of AUC0–∞: IREG+ATO group compared to control IIREG group; for Cmax as share of the REG Cmax: single dose of REG 20 mg/kg; for AUC0–t / AUC0–∞ / Cmax / AUC(0-inf) / AUC(0-t): rat plasma; for AUC0–t / AUC0–∞ / Cmax / Tmax / Vd/F / AUC(0-inf) / AUC(0-t): n = 8
Protocol: Nonetheless, no other experimental conditions were changed.
Next, 20 μL of acetonitrile was added. The samples were mixed for 10 min and then centrifuged for 10 min at 8500 rpm. 50 μL of the resulting supernatant was filtered and used for further analysis. Each sample was analyzed twice, and the arithmetic mean was determined from the surface areas obtained in the chromatogram.
The LC–MS/MS system consisted of a Xevo TQ-S-micro triple quadrupole mass spectrometer coupled with a UPLC Acquity I-class PLUS (Waters Corporation, Milford, MA, USA), and the Waters Software MassLynx V4.2 SCN1017 Software. A Cortecs UPLC C18 column (2.1 × 50 mm, 1.6 μm) was equipped with an Acquity UPLC BEH C18 VanGuard pre-column (2.1 × 5 mm, 3/Pk, Waters Corporation). The injection volume was 5 μL. The temperature of the autosampler was 4 °C, and the temperature of the column was 40 °C. Mobile phase A was composed of 0.1% aqueous formic acid solution (v/v), and phase B of acetonitrile: methanol and 0.1% formic acid aqueous solution at 1:3 (v/v) ratio. The total run time was 5 min. […] Positive electrospray ionization (ESI) multiple reaction monitoring (MRM) experiments were conducted for sample analysis. The Xevo TQ-S Micro Mass spectrometer (Waters) was run in the positive ion mode, and configured in the multiple reaction monitoring mode, for the detection of REG, REG-N-oxide (M-2), N-desmethyl-REG-N-oxide (M-5), and isotope-labelled REG-d3.
The data were collected and processed using the MassLynx Software (V 4.2 SCN 1017, Waters). The following settings were used for the Xevo TQ-S Micro Mass spectrometer: source temperature—150 °C, desolvation temperature—600 °C, nitrogen gas flow—900 L/h, capillary voltage 3.6 kV. Transition ion pairs (parent m/z—daughter m/z) were identified, using the MRM mode, for the following compounds: 482.95–270.08 and 288.02 for REG; 499.00–304.01, 252.16, and 229.00 for M-2; 485.94–202.02 and 228.98 for M-5; and 486.02–273.07 for REG-d3 as an IS.

[4] = IIREG group: REG 20 mg/kg b.w. alone, median (quartiles)
[5] = IREG+ATO group: REG 20 mg/kg + ATO 20 mg/kg b.w., median (quartiles)
[6] = metabolite of REG, IIREG group: single oral REG 20 mg/kg b.w. alone, median (quartiles)
[7] = metabolite of REG, IREG+ATO group: single oral REG 20 mg/kg + ATO 20 mg/kg b.w., median (quartiles)
[8] = in the presence of ATO (IREG+ATO vs IIREG)
[9] = male, Wistar, rat, plasma, po, 20 mg/kg, IIREG group: single oral REG 20 mg/kg b.w. alone, median (quartiles)
[10] = male, Wistar, rat, plasma, po, 20 mg/kg, IREG+ATO group: single oral REG 20 mg/kg + ATO 20 mg/kg b.w., median (quartiles)

Compound: CC(C)c1c(C(=O)Nc2ccccc2O)c(-c2ccccc2)c(-c2ccc(F)cc2)n1CC[C@@H](O)C[C@@H](O)CC(=O)O [2-OH ATO, orthohydroxy atorvastatin]
AUC0–t [1]: 544.83 (448.90; 682.46) ng × h/mL
Cmax [1]: 126.09 (87.49; 276.16) ng/mL

Compound: CC(C)c1c(C(=O)Nc2ccc(O)cc2)c(-c2ccccc2)c(-c2ccc(F)cc2)n1CC[C@@H](O)C[C@@H](O)CC(=O)O [4-OH ATO, parahydroxy atorvastatin]
AUC0–∞ [1]: 18.32 (12.89; 24.73) ng × h/mL

M-2/REG ratio AUC0–t [3, 4]: 0.26 (0.20; 0.31)
M-2/REG ratio AUC0–∞ [3, 4]: 0.30 (0.26; 0.38)
M-2/REG ratio Cmax [3, 4]: 0.18 (0.13; 0.28)
increase of AUC0–t [3]: 4.5 fold
increase of AUC0–∞ [3]: 3.6 fold
Cmax as share of the REG Cmax ([3]; IREG+ATO group): 24.14%
M-2/REG ratio AUC0–t [3, 5]: 0.31 (0.27; 0.45)
M-2/REG ratio Cmax [3, 5]: 0.27 (0.20; 0.33)
Gmean ratio (90% CI) of AUC0–t ([3]; IREG+ATO vs IIREG): 5.47 (4.30; 6.96)*
Gmean ratio (90% CI) of AUC0–∞ ([3]; IREG+ATO vs IIREG): 4.55 (3.70; 5.60)*
Gmean ratio (90% CI) of Cmax ([3]; IREG+ATO vs IIREG): 5.03 (3.82; 6.62)*
Gmean ratio (90% CI) of M-2/REG ratio AUC0–t ([3]; IREG+ATO vs IIREG): 1.30 (0.96; 1.76)*
Gmean ratio (90% CI) of M-2/REG ratio AUC0–∞ ([3]; IREG+ATO vs IIREG): 1.08 (0.81; 1.46)*
Gmean ratio (90% CI) of M-2/REG ratio Cmax ([3]; IREG+ATO vs IIREG): 1.35 (0.60; 3.07)*
Cmax as share of the REG Cmax ([3]; REG group): 15.28%
AUC0–t [3, 6]: 9548.40 (8488.70; 11,642.31) ng × h/mL
AUC0–∞ [3, 6]: 10,947.48 (9718.99; 12,781.14) ng × h/mL
Cmax [3, 6]: 302.15 (249.90; 395.95) ng/mL
Cmax [3, 7]: 1647.45 (1374.65; 1994.65) ng/mL
Compound: CNC(=O)c1cc(Oc2ccc(NC(=O)Nc3ccc(Cl)c(C(F)(F)F)c3)c(F)c2)cc[n+]1[O-] [M-2, regorafenib N-oxide]
Cmax as share of the REG Cmax [2]: 15.17%
AUC0–t [3, 7]: 52,182.11 (40,840.43; 64,989.90) ng × h/mL
AUC0–∞ [3, 7]: 52,438.36 (41,030.58; 65,561.89) ng × h/mL

M-5/REG ratio Cmax [3, 4]: 0.01 (0.01; 0.02)
increase of AUC0–t [3]: 6.0 fold
increase of AUC0–∞ [3]: 6.0 fold
Cmax as share of the REG Cmax ([3]; IREG+ATO group): 2.12%
M-5/REG ratio Cmax [3, 5]: 0.02 (0.02; 0.02)
Gmean ratio (90% CI) of AUC0–t ([3]; IREG+ATO vs IIREG): 7.13 (6.13; 8.29)*
Gmean ratio (90% CI) of AUC0–∞ ([3]; IREG+ATO vs IIREG): 7.16 (6.21; 8.26)*
Gmean ratio (90% CI) of Cmax ([3]; IREG+ATO vs IIREG): 5.65 (5.06; 6.31)*
Gmean ratio (90% CI) of M-5/REG ratio AUC0–t ([3]; IREG+ATO vs IIREG): 1.70 (1.42; 2.03)
Gmean ratio (90% CI) of M-5/REG ratio AUC0–∞ ([3]; IREG+ATO vs IIREG): 1.71 (1.43; 2.03)
Gmean ratio (90% CI) of M-5/REG ratio Cmax ([3]; IREG+ATO vs IIREG): 1.52 (0.68; 3.39)*
Cmax as share of the REG Cmax ([3]; REG group): 1.17%
increase of M-5/REG ratio for AUC0–t ([3]; in the presence of ATO): 100.0%
increase of M-5/REG ratio for AUC0–∞ ([3]; in the presence of ATO): 100.0%
increase of M-5/REG ratio for Cmax ([3]; in the presence of ATO): 66.7%
AUC0–t [3, 6]: 791.48 (703.15; 884.23) ng × h/mL
AUC0–∞ [3, 6]: 833.10 (752.92; 929.13) ng × h/mL
Cmax [3, 6]: 26.90 (23.40; 28.65) ng/mL
AUC0–t [3, 7]: 5501.55 (5310.04; 5967.36) ng × h/mL
AUC0–∞ [3, 7]: 5919.80 (5556.63; 6371.62) ng × h/mL
Cmax [3, 7]: 150.05 (136.75; 155.40) ng/mL
Compound: NC(=O)c1cc(Oc2ccc(NC(=O)Nc3ccc(Cl)c(C(F)(F)F)c3)c(F)c2)cc[n+]1[O-] [M-5, N-desmethyl regorafenib N-oxide]
Cmax as share of the REG Cmax [2]: 1.27%

increase of AUC0–t [3]: 3.2 fold
increase of AUC0–∞ [3]: 3.2 fold
Gmean ratio (90% CI) of AUC0–t ([3]; IREG+ATO vs IIREG): 4.20 (3.57; 4.95)*
Gmean ratio (90% CI) of AUC0–∞ ([3]; IREG+ATO vs IIREG): 4.20 (3.56; 4.94)*
Gmean ratio (90% CI) of Cl/F ([3]; IREG+ATO vs IIREG): 0.26 (0.22; 0.30)*
Gmean ratio (90% CI) of Cmax ([3]; IREG+ATO vs IIREG): 3.72 (3.20; 4.32)*
Gmean ratio (90% CI) of Vd/F ([3]; IREG+ATO vs IIREG): 0.28 (0.22; 0.37)*
Gmean ratio (90% CI) of ka ([3]; IREG+ATO vs IIREG): 1.60 (1.09; 2.37)
Gmean ratio (90% CI) of kel ([3]; IREG+ATO vs IIREG): 0.91 (0.75; 1.10)
Gmean ratio (90% CI) of t1/2 ([3]; IREG+ATO vs IIREG): 1.10 (0.91; 1.33)
Gmean ratio (90% CI) of tmax ([3]; IREG+ATO vs IIREG): 0.85 (0.63; 1.17)*
differences in tmax, ka, kel, t0.5 ([3]; IREG+ATO vs IIREG): No statistically significant differences
decrease of Cl/F [3, 8]: 72.7%
decrease of Vd/F [3, 8]: 71.7%
Tmax [3, 9]: 6 h
Vd/F [3, 9]: 1.98 L
AUC(0-inf) [3, 9]: 36 µg·h/mL
AUC(0-t) [3, 9]: 35.8 µg·h/mL
Cmax ([3]; male, Wistar, rat, plasma, po, 20 mg/kg, IIREG group: single oral REG 20 mg/kg b.w. alone, median (quartiles), read-out: Cmax): 1.88 µg/mL
Tmax [3, 10]: 5 h
Vd/F [3, 10]: 0.51 L
AUC(0-inf) [3, 10]: 163 µg·h/mL
AUC(0-t) [3, 10]: 163 µg·h/mL
Cmax ([3]; male, Wistar, rat, plasma, po, 20 mg/kg, IREG+ATO group: single oral REG 20 mg/kg + ATO 20 mg/kg b.w., median (quartiles), read-out: Cmax): 7.29 µg/mL
Compound: CNC(=O)c1cc(Oc2ccc(NC(=O)Nc3ccc(Cl)c(C(F)(F)F)c3)c(F)c2)ccn1 [REG, regorafenib, reference compound]
